Data on two compounds can be found in patent US20040248926A1, “Preventive or remedy for pruritus” (priority 2001, published 2004).

Common to all, as to assay type: in vivo
The subject of data set [1] is compound 48/80-induced scratching. The data set can be described thus: Inhibitory effect on compound 48/80-induced scratching in mice. Conditions: for number of the scratching: mean ± standard error; for effect on compound 48/80-induced scratching (in words): mice, p.o. On the procedure: The experiment was carried out according to the method of Kuraishi, et al. [Eur. J. Pharmacol., Vol. 275, pp. 229-233 (1995)).
Male ddY mice each weighing 19 to 22 g (supplied by Japan SLC) were used in the test. 25 to 26 mice were put in each plastic cage and reared by allowing them to freely take commercially available solid feed and water, in an animal room at 19-25° C., 30-70% humidity and a 12 h lighting cycle (lighting: 7:00 a.m. to 7:00 p.m.) a day.
0.1 ml of a solution of compound 48/80 (by Sigma) (0.1 mg of compound 48/80 was dissolved in 1 ml of physiological saline) was subcutaneously injected into the right-side back shoulder of each mouse, and all the mice were individually put in a transparent cage. For 1 hour immediately after this, the behavior of every mouse was recorded with an 8-mm video camera recorder. The video was reproduced, and the number of the scratching by its right hind paw was counted for 1 hour immediately after the subcutaneous administration, at intervals of 5 minutes or 10 minutes, and the data of every 5 or 10 minutes were totaled. Each mouse scratched itself a few times per about one second, and a series of these actions of each mouse was counted as one.
Compound 1 and Compound 2 were separately suspended in aqueous 0.5 w/v % methyl cellulose solution to have a concentration of 3 mg/ml. The suspension of Compound 1 was further diluted with aqueous 0.5w/v % methyl cellulose solution, and suspensions or solutions for administration each having an intended concentration were prepared. The solvent (aqueous 0.5 w/v % methyl cellulose solution) or the suspension or solution for administration was orally administered to each mouse, 30 minutes before the subcutaneous injection of the compound 48/80, and its volume was 10 ml/kg. The solvent-administered mice were a control group.

The subject of data set [2] is poly-L-arginine-induced scratching. In words: Inhibitory effect on poly-L-arginine-induced scratching. Conditions: rats. On the procedure:
The experiment was carried out according to the method of Hayashi, et al. [Eur. J. Pharmacol., Vol. 425, pp. 219-227 (2001)].
Male Wistar rats of 5 weeks (supplied by Japan SLC) were used in the test. 4 to 6 rats were put in each plastic cage and reared by allowing them to freely take commercially available solid feed and water, in an animal room at 19-25° C., 30-70% humidity and a 12 h lighting cycle (lighting: 7:00 a.m. to 7:00 p.m.) a day.
Every rat was shaven on the back, individually put in an acrylic monitor cage (200×145×170 mm), and acclimated therein for 30 minutes. 50 μl of a solution of poly-L-arginine (by Sigma) (4 mg of poly-L-arginine was dissolved in 1 ml of physiological saline) was intracutaneously injected into the interscapular region of each rat. For 30 minutes immediately after this, the behavior of every rat was recorded with a 8-mm video camera recorder. The video was reproduced, and the number of the scratching by its back paws at around the area where the solution had been intracutaneously injected was counted for 30 minutes immediately after the intracutaneous administration. Each rat scratched itself a few times per about one second, and a series of these actions of each rat was counted as one.
Compound 1 was suspended in aqueous 0.5 w/v % methyl cellulose solution to have a concentration of 0.1 or 1 mg/ml. […]

A short description of a further data set: Acute toxicity test. Conditions: oral administration, male dd mice, mortality on the seventh day. On the procedure:
The test compound was administered orally or intraperitoneally to three/group male dd mice (body weight: 20±1 g). The minimum lethal dose (MLD) was obtained by observing the mortality on the seventh day after the administration.

As to `CC(C)(O)C(=O)Nc1cccc2c1C(=O)c1sccc1CS2(=O)=O` [Compound 2, 2-hydroxy-2-methyl-N-(5,5,10-trioxo-4,10-dihydrothieno [3,2c][1]benzothiepin-9-yl)propanamide], the “number of the scratching” value in data set [1] (30 mg/kg p.o., 0-10 min after subcutaneous injection, totaled, n = 10) was determined as 10 ± 2; in data set [1] (30 mg/kg p.o., 10-20 min after subcutaneous injection, totaled, n = 10), 11 ± 3; in data set [1] (30 mg/kg p.o., 20-30 min after subcutaneous injection, totaled, n = 10), 14 ± 2; in data set [1] (30 mg/kg p.o., 30-40 min after subcutaneous injection, totaled, n = 10), 14 ± 2; in data set [1] (30 mg/kg p.o., 40-50 min after subcutaneous injection, totaled, n = 10), 14 ± 2; in data set [1] (30 mg/kg p.o., 50-60 min after subcutaneous injection, totaled, n = 10), 14 ± 2. In data set [1], the “effect on compound 48/80-induced scratching (in words)” value was “inhibited”.

In the case of `C[C@](O)(C(=O)Nc1cccc2c1C(=O)c1sccc1CS2(=O)=O)C(F)(F)F` [Compound 1, (S)-(+)-3,3,3-trifluoro-2-hydroxy-2-methyl-N-(5,5,10-trioxo-4,10-dihydrothieno[3,2c][1]benzothiepin-9-yl)propanamide], in data set [2] (10 mg/kg p.o., 2 hours before intracutaneous poly-L-arginine, mean ± standard error, n = 8), the “Number of Scratching Actions for 30 minutes” value is recorded as 14 ± 3. The “effect on poly-L-arginine-induced pruritic behavior (in words)” value in data set [2] (p.o.) is given as “inhibited”. Besides, the “minimum lethal dose (MLD)” value in “Acute toxicity test” is reported as above 1000 mg/kg. Moreover, the “number of the scratching” value is listed as 3 ± 1 in data set [1] (3 mg/kg p.o., 0-5 min after subcutaneous injection of compound 48/80, totaled, n = 4); 7 ± 2 in data set [1] (3 mg/kg p.o., 5-10 min after subcutaneous injection, totaled, n = 4); 9 ± 1 in data set [1] (3 mg/kg p.o., 10-15 min after subcutaneous injection, totaled, n = 4); 12 ± 4 in data set [1] (3 mg/kg p.o., 15-20 min after subcutaneous injection, totaled, n = 4); 13 ± 4 in data set [1] (3 mg/kg p.o., 20-25 min after subcutaneous injection, totaled, n = 4); 14 ± 5 in data set [1] (3 mg/kg p.o., 25-30 min after subcutaneous injection, totaled, n = 4). In addition, the “number of the scratching” value worked out at 15 ± 5 in data set [1] (3 mg/kg p.o., 30-35 min after subcutaneous injection, totaled, n = 4); 15 ± 5 in data set [1] (3 mg/kg p.o., 35-40 min after subcutaneous injection, totaled, n = 4); 17 ± 6 in data set [1] (3 mg/kg p.o., 40-45 min after subcutaneous injection, totaled, n = 4); 18 ± 6 in data set [1] (3 mg/kg p.o., 45-50 min after subcutaneous injection, totaled, n = 4); 18 ± 6 in data set [1] (3 mg/kg p.o., 50-55 min after subcutaneous injection, totaled, n = 4); 18 ± 6 in data set [1] (3 mg/kg p.o., 55-60 min after subcutaneous injection, totaled, n = 4). Moreover, the “number of the scratching” value came out at 2 ± 1 in data set [1] (10 mg/kg p.o., 0-5 min after subcutaneous injection, totaled, n = 4); 6 ± 2 in data set [1] (10 mg/kg p.o., 5-10 min after subcutaneous injection, totaled, n = 4); 8 ± 2 in data set [1] (10 mg/kg p.o., 10-15 min after subcutaneous injection, totaled, n = 4); 9 ± 2 in data set [1] (10 mg/kg p.o., 15-20 min after subcutaneous injection, totaled, n = 4); 10 ± 3 in data set [1] (10 mg/kg p.o., 20-25 min after subcutaneous injection, totaled, n = 4); 10 ± 3 in data set [1] (10 mg/kg p.o., 25-30 min after subcutaneous injection, totaled, n = 4). The “number of the scratching” value in data set [1] (10 mg/kg p.o., 30-35 min after subcutaneous injection, totaled, n = 4) was determined as 11 ± 3; in data set [1] (10 mg/kg p.o., 35-40 min after subcutaneous injection, totaled, n = 4), 11 ± 3; in data set [1] (10 mg/kg p.o., 40-45 min after subcutaneous injection, totaled, n = 4) it was 12 ± 3; in data set [1] (10 mg/kg p.o., 45-50 min after subcutaneous injection, totaled, n = 4), 12 ± 3; in data set [1] (10 mg/kg p.o., 50-55 min after subcutaneous injection, totaled, n = 4), 12 ± 3; in data set [1] (10 mg/kg p.o., 55-60 min after subcutaneous injection, totaled, n = 4) it was 12 ± 3. For the same compound, the “number of the scratching” value in data set [1] (30 mg/kg p.o., 0-5 min after subcutaneous injection, totaled, n = 4) was determined as 0 ± 0; in data set [1] (30 mg/kg p.o., 5-10 min after subcutaneous injection, totaled, n = 4) it was 0 ± 0; in data set [1] (30 mg/kg p.o., 10-15 min after subcutaneous injection, totaled, n = 4) it was 1 ± 1; in data set [1] (30 mg/kg p.o., 15-20 min after subcutaneous injection, totaled, n = 4), 2 ± 1; in data set [1] (30 mg/kg p.o., 20-25 min after subcutaneous injection, totaled, n = 4), 3 ± 1; in data set [1] (30 mg/kg p.o., 25-30 min after subcutaneous injection, totaled, n = 4), 3 ± 1. The “number of the scratching” value in data set [1] (30 mg/kg p.o., 30-35 min after subcutaneous injection, totaled, n = 4) was determined as 4 ± 1; in data set [1] (30 mg/kg p.o., 35-40 min after subcutaneous injection, totaled, n = 4), 4 ± 1; in data set [1] (30 mg/kg p.o., 40-45 min after subcutaneous injection, totaled, n = 4) it was 4 ± 1; in data set [1] (30 mg/kg p.o., 45-50 min after subcutaneous injection, totaled, n = 4) it was 4 ± 1; in data set [1] (30 mg/kg p.o., 50-55 min after subcutaneous injection, totaled, n = 4) it was 4 ± 1; in data set [1] (30 mg/kg p.o., 55-60 min after subcutaneous injection, totaled, n = 4), 4 ± 1. In data set [1], the “effect on compound 48/80-induced scratching (in words)” value is on record as “inhibited”.
